According to ChEMBL document CHEMBL1147749, “Aromatic sulfide inhibitors of histone deacetylase based on arylsulfinyl-2,4-hexadienoic acid hydroxyamides” (J Med Chem, 2006):

Tests used:
Histone deacetylase [1] = assay: Inhibition of HDAC in rat liver homogenate; assay type: tissue-based
HCT-116 = assay: Inhibition of human colorectal cancer HCT116 cell viability; assay type: functional, cell-based
SUD4 = assay: Inhibition of human lymphoma SUD4 cell viability; assay type: functional, cell-based; details: SU-DHL-4
MCF7 = assay: Inhibition of human breast cancer MCF7 cell viability; assay type: functional, cell-based
CCRF-CEM = assay: Inhibition of human leukemic CEM cell viability; assay type: functional, cell-based
Histone deacetylase [2] = assay: Inhibition of HDAC in human leukemic CEM cells; assay type: cell-based; details: ccrf-cem

| SMILES | IC50 (Histone deacetylase [1]) [µM] | IC50 (Histone deacetylase [2]) [µM] | also measured |
| --- | --- | --- | --- |
| O=C(CCCCCS(=O)(=O)c1ccccc1)NO | 0.04 | – | – |
| O=C(CCCCC[S+]([O-])c1ccc(Cl)cc1)NO (centres undefined) | – | – | IC50 (HCT-116): 3.9 µM; IC50 (SUD4): 7.5 µM; IC50 (MCF7): 6.1 µM |
| O=C(CCCCCSc1ccc(NS(=O)(=O)c2ccc(Cl)cc2)cc1)NO | 0.11 | – | – |
| O=C(CCCCCC[S+]([O-])c1ccc(Cl)cc1)NO (centres undefined) | 0.38 | – | – |
| COc1ccc([S+]([O-])C/C=C/C=C/C(=O)NO)cc1 (centres undefined) | 0.41 | 5.4 | IC50 (CCRF-CEM): 9.6 µM |
| CN(C)c1ccc2sc(/C=C/C=C/C(=O)NO)cc2c1 | > 25 | – | – |
| CC(/C=C/C(=O)NO)=C\C(C)Sc1ccc(N(C)C)cc1 (centres undefined) | 0.34 | 5.3 | IC50 (CCRF-CEM): 7.5 µM |
| O=C(/C=C/C=C/CSc1ccc(Cl)cc1)NO | 0.31 | 1.6 | IC50 (CCRF-CEM): 1.6 µM |
| O=C(/C=C/C=C/C[S+]([O-])c1ccccc1)NO (centres undefined) | 0.24 | > 25 | – |
| O=C(/C=C/C=C/CSc1ccc2ccccc2c1)NO | 0.7 | 9.4 | IC50 (CCRF-CEM): 1.7 µM |
| O=C(CCCCCSc1ccccc1)NO | 0.12 | – | – |
| CN(C)c1ccc(Sc2cccc(/C=C/C(=O)NO)c2)cc1 | 0.16 | 8.6 | IC50 (CCRF-CEM): 3.4 µM |
| O=C(/C=C/C=C/CSc1ccccc1)NO | 0.39 | > 25 | – |
| CN(C)c1ccc([S+]([O-])CCCCCC(=O)NO)cc1 (centres undefined) | 0.18 | – | – |
| O=C(CCCCCSc1ccc(Cl)cc1)NO | 0.26 | > 25 | – |
| O=C(CCCCC[S+]([O-])c1ccccc1)NO (centres undefined) | 0.06 | 7.7 | – |
| O=C(/C=C/C=C/C[S+]([O-])c1ccc(Cl)cc1)NO (centres undefined) | 0.4 | 1.2 | – |
